Data taken from US4504462A, “Process for making a lyophilized product for use in skeletal imaging” (Mallinckrodt, Inc., priority 1982, dated 1985).

Assay: skeletal imaging with scintillation camera
Assay type: in vivo, adult human subject
Settings: component substituted in the kit of Example 1 or Example II; compared with the original kit
Method: An imaging agent is prepared using this kit by adding about 5 ml of a pertechnetate-Tc99m physiological saline with an activity of about 75 mCi, from a commercial technetium source. The kit is agitated until the kit components are dissolved. About 1 ml of the agent is slowly injected, over a period of about 30 seconds, into an adult human subject weighing about 75 kg.

| Molecule | results when substituted in the kit |
| --- | --- |
| CC1CC(O)=C(O)C1=O (stereo not drawn) [5-methyl reductic acid] | substantially similar results |
| O=C1O[C@H]([C@@H](O)CBr)C(O)=C1O [6-bromo-6-deoxyascorbic acid] | substantially similar results |
| O=C1O[C@H]([C@@H](O)CCl)C(O)=C1O [6-chloro-6-deoxyascorbic acid] | substantially similar results |
| CC(O)(P(=O)(O)O)P(=O)(O)O [EHDP, ethane-1-hydroxy-1,1-diphosphonic acid, reference compound] | substantially similar results |
| O=P(O)(O)C(O)P(=O)(O)O [HMDP, methanehydroxydiphosphonic acid, reference compound] | substantially similar results |
| O=P(O)(O)CP(=O)(O)O [MDP, methanediphosphonic acid, reference compound] | substantially similar results |
| O=C1O[C@H]([C@H](O)CO)C(O)=C1O [erythorbic acid] | substantially similar results |
| NCC(O)(P(=O)(O)O)P(=O)(O)O [ethane-1-hydroxy-2-amino-1,1-diphosphonic acid, reference compound] | substantially similar results |
| CN(C)C(P(=O)(O)O)P(=O)(O)O [methane-N,N-dimethylaminodiphosphonic acid, reference compound] | substantially similar results |
| CNC(P(=O)(O)O)P(=O)(O)O [methane-N-methylaminodiphosphonic acid, reference compound] | substantially similar results |
| NC(P(=O)(O)O)P(=O)(O)O [methaneaminodiphosphonic acid, reference compound] | substantially similar results |
| O=C1CCC(O)=C1O [reductic acid] | substantially similar results |
| O=C1O[C@H]([C@@H](O)CO)C([O-])=C1O.[Na+] [sodium ascorbate] | substantially similar results |
| O=C1O[C@H]([C@@H](O)CBr)C([O-])=C1O.[Na+] [sodium-6-bromo-6-deoxyascorbate] | substantially similar results |
| O=C1O[C@H]([C@@H](O)CCl)C([O-])=C1O.[Na+] [sodium-6-chloro-6-deoxyascorbate] | substantially similar results |
| O=S(=O)([O-])[O-].[Sn+2] [stannous sulfate] | substantially similar results |
| O=C([O-])[C@H](O)[C@@H](O)C(=O)[O-].[Sn+2] [stannous tartrate] | substantially similar results |

Same assay, conditions: in vivo

| Molecule | results when substituted in the kit |
| --- | --- |
| stannous fluoride | substantially similar results |
